The text below walks through data of PMC10565663, “^177Lu-labeled PSMA targeting therapeutic with optimized linker for treatment of disseminated prostate cancer; evaluation of biodistribution and dosimetry” (Frontiers in Oncology, 2023).

The subject of one data set is PC3-pip cells. Kind of data set: Cellular processing and internalization (acid wash method). The conditions noted are these: 2 nM, after 24 h of continuous incubation at 37°C. It is filed as cell-based, human. As to the method:
Internalization of radiolabeled PSMA binders was evaluated using an acid wash method ([21]). PC3-pip cells were incubated with 2 nM of [^177Lu]Lu-BQ7876 or [^177Lu]Lu-PSMA-617 in RPMI medium at 37°C (5% of CO2). At predetermined time points (1, 2, 6 and 24 h), cells were treated with 0.5 mL of 4 M urea solution in a 0.2 M glycine buffer, pH 2.5, for 5 minutes on ice. After that, the acidic supernatant was collected and this fraction was considered to be a membrane-bound activity. To lyse the cells, 0.5 mL of 1 M sodium hydroxide solution was added and incubated at 37°C for at least 20 min. Alkaline-containing solution was collected, and the basic fraction was considered to be an internalized activity. Samples were measured using gamma-counter.

Data set [1] addresses T1, PSMA-expressing PC3-pip cells (Homo sapiens, UniProt Q04609).
T1 construct: expressed in transfected cells; host or cells: PC3-pip (PSMA-transfected PC-3 human prostate cancer cells), provided by Prof; M. Pomper, Johns Hopkins University
Kind of data set: In vitro binding specificity test (PSMA saturation with unlabeled compound). The conditions noted are these: 1 nM radiolabeled compound, 100-fold molar excess unlabeled, 1 h 37°C. How it is done:
The human prostate cancer cell line PC-3 was purchased from the American Type Culture Collection (ATCC; LGC Promochem, Borås, Sweden). The cells were cultured in Roswell Park Memorial Institute (RPMI) 1640 medium supplemented with 10% fetal bovine serum (FBS), 2 mM L-glutamine, penicillin 100 IU/mL and 100 µg/mL streptomycin at 37°C and 5% CO2 atmosphere. The PSMA-transfected and overexpressing variant of PC3 cell line, PC3-pip, was provided by Prof. M. Pomper, Department of Radiology, the Johns Hopkins University, Baltimore, MD, US. PC3-pip cells were cultured in two types of RPMI media. The first one contained 20% fetal bovine serum, 1% of L-glutamine (5 mL) and 1% of PEST (penicillin and streptomycin 5 mL). The second one contained 20% fetal bovine serum, 1% of L-glutamine (5 mL) and 1% of PEST (penicillin and streptomycin 5 mL) and 10 μg/mL of pyramycin. The second media is used every second passage to maintain clone selection. All in vitro experiments were performed in triplicates. For a typical experiment, cells were seeded one day before the experiment in Petri dishes (35 mm) in the amount of 1×10^6 cell/dish.
[…] specificity was tested using a saturation method. Before the experiment, cells were washed with PBS solution. […] Cell-associated activity was measured using gamma-counter and presented as the percentage of added activity.

The subject of data set [2] is PC3-pip xenografts. Briefly: Biodistribution in mice bearing PSMA-positive PC3-pip xenografts. It counts as in vivo, Balb/c nu/nu mice. Particulars: 3 h p.i.; PC3-pip xenograft mice; n=4. As to the method: To prepare xenografts, PC3-pip and PC3 (PSMA-negative control) cells (10^7 cells in 100 μL of media) were subcutaneously injected in the hind legs of female Balb/c nu/nu mice. At the time of the experiment, the average mouse weight was 18 ± 2 g. The average tumor weight was 0.2 ± 0.1 g.
Biodistribution of [^177Lu]Lu-BQ7876 was determined at 1, 3, 24, 48 and 130 hours p.i. Mice were injected with [^177Lu]Lu-BQ7876 (280 kBq/mouse). The amount of substance was adjusted to 80 pmol/mouse using unlabeled substance. A group of four animals per data point was used. The labeled peptide was injected into the tail vein. Mice were anaesthetized by a lethal intraperitoneal injection of ketamine and xylazine mixture solution (the dose of ketamine was 250 mg/kg and the dose of xylazine was 25 mg/kg) and sacrificed. Mice were exsanguinated by heart puncture using a heparinized syringe under anaesthesia. Organs and tissues were excised and weighed, and the activity of each organ was measured. The percentage of injected dose per gram of sample (%ID/g) was calculated. Activity in the rest of the gastrointestinal tract was measured to estimate hepatobiliary excretion. The rest of the body was also collected and its activity was measured. […]

Data set [3] concerns PC3-pip xenografts. Briefly: microSPECT/CT imaging of mice bearing PC3-pip xenografts. It is filed as in vivo, Balb/c nu/nu mice. The conditions noted are these: 3 h pi, 80 pmol/mouse. As to the method:
To confirm the biodistribution data, imaging of mice bearing PC3-pip xenografts was performed. The mice were injected with [^177Lu]Lu-BQ7876 (900 kBq/mouse, 80 pmol/mouse) or [^177Lu]Lu-PSMA-617 (1200 kBq/mouse, 80 pmol/mouse). Imaging was performed at 3 h pi using nanoScan SPECT/CT (Mediso Medical Imaging Systems, Hungary) according to the protocol describe earlier ([25]).

On the set-up of data set [4]: method as in Kuo et al. 2018. The conditions noted are these: humans; extrapolated from mouse biodistribution; ref Kuo et al. 2018; cited from earlier work.
For data set [5], the target named is T2, PSMA-expressing PC-3pip prostate cancer cells (Homo sapiens, UniProt Q04609).
T2 construct: expressed in transfected cells; host or cells: PC3-pip (PSMA-transfected PC-3 human prostate cancer cells), provided by Prof; M. Pomper, Johns Hopkins University
T2 sequence (Q04609 whole entry): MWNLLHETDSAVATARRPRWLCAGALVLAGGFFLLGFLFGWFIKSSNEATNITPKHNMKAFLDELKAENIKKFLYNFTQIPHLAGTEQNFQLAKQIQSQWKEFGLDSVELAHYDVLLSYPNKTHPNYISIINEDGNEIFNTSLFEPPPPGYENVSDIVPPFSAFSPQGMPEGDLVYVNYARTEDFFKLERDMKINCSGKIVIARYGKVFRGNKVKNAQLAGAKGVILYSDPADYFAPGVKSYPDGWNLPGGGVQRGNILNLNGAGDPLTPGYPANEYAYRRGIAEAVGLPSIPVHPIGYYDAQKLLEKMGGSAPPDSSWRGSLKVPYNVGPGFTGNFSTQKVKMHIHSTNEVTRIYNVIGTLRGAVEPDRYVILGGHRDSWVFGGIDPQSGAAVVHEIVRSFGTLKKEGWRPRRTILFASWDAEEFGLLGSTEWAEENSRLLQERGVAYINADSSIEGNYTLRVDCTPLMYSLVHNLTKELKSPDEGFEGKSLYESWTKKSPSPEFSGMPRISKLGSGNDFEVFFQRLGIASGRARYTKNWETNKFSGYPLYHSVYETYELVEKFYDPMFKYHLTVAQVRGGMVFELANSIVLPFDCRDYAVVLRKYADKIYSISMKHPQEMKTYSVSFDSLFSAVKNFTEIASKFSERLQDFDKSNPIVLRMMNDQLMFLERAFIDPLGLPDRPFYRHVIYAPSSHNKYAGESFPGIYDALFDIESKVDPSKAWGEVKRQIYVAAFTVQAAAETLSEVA
Briefly: Half-maximal inhibitory concentration: inhibition of [^111In]In-PSMA-617 binding. The conditions noted are these: vs [^111In]In-PSMA-617 (1 nM); PC3-pip cells; 4°C, 4 hours. How it is done:
For the determination of a half-maximal inhibitory concentration (IC50), PSMA-617 was labeled with indium-111. For this purpose, 2 nmol PSMA-617 were dissolved in 40 µL 0.2 M ammonium acetate, pH 5.5, and 12 µL (10 MBq) of [^111In]InCl3 solution in 0.01 M HCl was added. The mixture was vortexed and incubated at 85 °C for 30 min. The yield was determined using iTLC eluted with 0.2 M citric acid, pH 2.0. Since the radiochemical yield was over 98%, [^111In]In-PSMA-617 was used in further experiments without purification.
For determination of IC50, BQ7876 and PSMA-617 were loaded with non-radioactive Lu of natural isotopic composition (^natLu) by incubation with a three-fold molar excess of ^natLuCl3 at 85 °C for 30 min in 0.2 M ammonium acetate, pH 5.5. Cells were washed with a PBS solution and incubated at 4°C for 4 hours with [^111In]In-PSMA-617 (1 nM) in the presence of increasing concentrations (range 0 to 2 μM) of competitors, ^natLu-BQ7876 or ^natLu-PSMA-617. Thereafter, cells were detached, collected, and cell-associated activity was measured using gamma-counter. The half-maximal inhibitory concentration was calculated using GraphPad software (version 9.3.1 for Windows, GraphPad Software, LLC. CA, USA).

SMILES strings stand for the structures. “And” between values parts separate entries of the source, which are not always exact repeats. Identical values can stand only once.

T1 sequence (Q04609 whole entry): as above

Consider `O=C(O)CC[C@H](NC(=O)N[C@@H](CCCCNC(=O)[C@H](Cc1ccc2ccccc2c1)NC(=O)[C@H]1CC[C@H](CNC(=O)CN2CCN(CC(=O)O)CCN(CC(=O)O)CCN(CC(=O)O)CC2)CC1)C(=O)O)C(=O)O` [PSMA-617], for which the “internalized fraction of the total cell-associated activity” value with PC3-pip cells came out at 10.0 ± 2.9%.
Take `O=C([O-])CN1CCN(CC(=O)[O-])CCN(CC(=O)NC[C@H]2CC[C@H](C(=O)N[C@@H](Cc3ccc4ccccc4c3)C(=O)NCCCC[C@H](NC(=O)N[C@@H](CCC(=O)O)C(=O)O)C(=O)O)CC2)CCN(CC(=O)[O-])CC1.[111In+3]` [[^111In]In-PSMA-617]: the “Binding of labeled compound to cells after saturation of PSMA with large excess of unlabeled compound” value in data set [1] is listed as “highly significant (p< 5 x 10^-6) reduction of binding”.
In the data set on PC3-pip xenografts [2], `O=C([O-])CN1CCN(CC(=O)[O-])CCN(CC(=O)NC[C@H]2CC[C@H](C(=O)N[C@@H](Cc3ccc4ccccc4c3)C(=O)NCCCC[C@H](NC(=O)N[C@@H](CCC(=O)O)C(=O)O)C(=O)O)CC2)CCN(CC(=O)[O-])CC1.[177Lu+3]` [[^177Lu]Lu-PSMA-617] displayed an Uptake in blood of 0.06±0.02 %IA/g, an Uptake in bone of 0.11±0.02 %IA/g, an Uptake in heart of 0.08±0.07 %IA/g and an Uptake in kidney of 9±3 %IA/g. Besides, in the data set with PC3-pip xenografts [2], the Uptake in liver worked out at 0.24±0.02 %IA/g, the Uptake in lung is on record as 0.21±0.07 %IA/g, the Uptake in muscle came out at 0.07±0.02 %IA/g and the Uptake in pancreas is reported as 0.09±0.04 %IA/g. Also, in the data set on PC3-pip xenografts [2], the “Uptake in salivary gland” value worked out at 0.12±0.04 %IA/g, the Uptake in spleen is 0.5±0.3 %IA/g and the Uptake in tumor amounted to 12±3 %IA/g. In data set [1], the “Binding of labeled compound to cells after saturation of PSMA with large excess of unlabeled compound” value is recorded as “highly significant (p< 5 x 10^-6) reduction of binding”. Further, the “Activity accumulation in microSPECT/CT imaging” value in the data set with PC3-pip xenografts [3] is reported as “accumulated avidly in tumors”. Besides, in data set [4], the “Absorbed dose, adrenals” value is given as 7.64E-03 mGy/MBq; the “Absorbed dose, brain” value was 4.32E-04 mGy/MBq; the “Absorbed dose, gallbladder wall” value is listed as 8.76E-04 mGy/MBq; the “Absorbed dose, heart wall” value is given as 1.00E-03 mGy/MBq. In data set [4], the “Absorbed dose, kidneys” value was 1.11E-01 mGy/MBq; the “Absorbed dose, liver” value is given as 1.37E-03 mGy/MBq; the “Absorbed dose, lungs” value was 1.81E-03 mGy/MBq; the “Absorbed dose, osteogenic cells” value is 8.30E-04 mGy/MBq. Moreover, in data set [4], the “Absorbed dose, pancreas” value was 7.60E-04 mGy/MBq; the “Absorbed dose, prostate” value is 1.17E-03 mGy/MBq; the “Absorbed dose, red marrow” value is 7.59E-04 mGy/MBq; the “Absorbed dose, small intestine” value was 1.72E-03 mGy/MBq. Further, in data set [4], the “Absorbed dose, spleen” value was 4.42E-03 mGy/MBq; the “Absorbed dose, stomach wall” value is 1.69E-03 mGy/MBq; the “Absorbed dose, testes” value was 1.05E-03 mGy/MBq; the “Absorbed dose, thymus” value was 7.19E-04 mGy/MBq. Moreover, in data set [4], the “Absorbed dose, thyroid” value is recorded as 7.11E-04 mGy/MBq and the “Absorbed dose, total body” value is on record as 1.70E-03 mGy/MBq.
As for `O=C([O-])CN1CCN(CC(=O)[O-])CCN(CC(=O)NC[C@H]2CC[C@H](C(=O)N[C@@H](Cc3ccc4ccccc4c3)C(=O)NCCCC[C@H](NC(=O)N[C@@H](CCC(=O)O)C(=O)O)C(=O)O)CC2)CCN(CC(=O)[O-])CC1.[Lu+3]` [^natLu-PSMA-617], the IC50 in data set [5] is 0.061 µM and 0.06 µM.

In general, IC50 refers to the concentration needed to halve the response being measured.
